ChEMBL document CHEMBL1122167, “Syntheses and adrenergic agonist properties of ring-fluorinated isoproterenols” (J Med Chem, 1982)
Each block holds one compound with its values, some of them ahead of it.

Assays:
[1] = target: Adrenergic receptor alpha
[2] = target: Adrenergic receptor beta (Homo sapiens, UniProt P08588+P07550+P13945)
Description: Evaluated for Beta adrenergic receptor agonistic property in isolated guinea pig atria

[3] = target: Adrenergic receptor beta (Rattus norvegicus, UniProt P18090+P10608+P26255)

- IC50 [1]: > 100 µM
Structure (SMILES): CC(C)NCC(O)c1ccc(O)c(O)c1 (racemic) [ISOPROTERENOL]

Structure (SMILES): CC(C)NCC(O)c1cc(O)c(O)c(F)c1 (stereo not given)
- IC50 [1]: 55 µM
- EC50 [2]: 0.02 µM
- IC50 [3]: 0.6 µM

Structure (SMILES): CC(C)NCC(O)c1cc(O)c(O)cc1F (stereo not given)
- IC50 [1]: 80 µM
- EC50 [2]: 30 µM
- IC50 [3]: 5.5 µM

Structure (SMILES): CC(C)NCC(O)c1ccc(O)c(O)c1F (stereo not given)
- IC50 [1]: 59 µM
- EC50 [2]: 0.01 µM
- IC50 [3]: 0.5 µM
